Results as given in patent US20100040711A1, “ZINC-CARNOSINE -BASED TREATMENT FOR NON ULCER (FUNCTIONAL ) DYSPEPSIA & IRRITABLE BOWEL SYNDROME IN HUMANS AND OTHER ANIMALS” (priority 2008, published 2010).

Columns and labels:
[1] = system: functional dyspepsia or irritable bowel syndrome; assay: Veterinary case reports: dogs diagnosed with functional dyspepsia or irritable bowel syndrome given zinc-carnosine; assay type: in vivo; details: dog, 30 mg/day
Text: Ellie, a three year old, sixteen pound West Highland Terrier presented to vet with visible discomfort, loose stools and intermittent diarrhea. […] The diagnosis of functional dyspepsia or irritable bowel syndrome made.
Katelyn, a six year old, fourteen pound Boston Terrier presented to vet with visible discomfort, diarrhea, vomiting and inappetence. […] Blood tests indicated no abnormalities and a stool samples indicated the dog was parasite free. The diagnosis of functional dyspepsia or irritable bowel syndrome made.

[2] = system: functional dyspepsia or irritable bowel syndrome; assay: Veterinary case report: cat diagnosed with functional dyspepsia or irritable bowel syndrome given zinc-carnosine; assay type: in vivo; details: 15 mg BID
Text: A five year old, eight pound Siamese cat presented to vet with severe diarrhea, severe visible discomfort, inappetence and losing weight. […] Blood tests indicated no abnormalities and a stool samples indicated the cat was parasite free. The diagnosis of functional dyspepsia or irritable bowel syndrome made.

[3] = based on current evidence; cited from earlier work
[4] = system: human umbilical vein endothelial cells; details: cited from earlier work
[5] = system: human foreskin fibroblast cells; details: cited from earlier work
[6] = system: human MCT3-E1 cells (osteoblasts); details: cited from earlier work
[7] = system: water immersion stress; details: cited from earlier work
[8] = system: HCl-ethanol gastric damage; details: cited from earlier work
[9] = system: TNBS model of colitis; details: cited from earlier work
[10] = system: gastric ulcer; details: clinical trials, versus placebo; cited from earlier work
[11] = system: post-infectious IBS; details: recent study, Dunlap et al. 2003; cited from earlier work

Compound	improvement of conditions (discomfort, diarrhea, vomiting, inappetence) ([1]; course during treatment)	symptoms at check up ([1]; four week check up)	improvement of condition (discomfort, loose stools, diarrhea) ([1]; two week and four week follow-up visits)	symptoms at check up ([2]; four week check up)	improvement of conditions (diarrhea, discomfort, inappetence, weight loss) ([2]; within seven days)	side effects [3]	stimulation of growth (proliferation) [4]	stimulation of growth (proliferation) [5]	stimulation of growth (proliferation) [6]	effect in animal model of gut ulceration and gross inflammation [7]	effect in animal model of gut ulceration and gross inflammation [8]	effect in animal model of gut ulceration and gross inflammation [9]	effect in treatment of gastric ulcer [10]	efficacy for treating post-infectious IBS [11]
Zinc-Carnosine	conditions improved on a daily basis	No further symptoms	significant improvement	No further symptoms	conditions improved significantly	little or no side effects	able to stimulate growth (proliferation)	able to stimulate growth (proliferation)	able to stimulate growth (proliferation)	beneficial effects	beneficial effects	beneficial effects	beneficial effect above placebo	–
C[C@]12C=CC(=O)C=C1CC[C@@H]1[C@@H]2[C@@H](O)C[C@@]2(C)[C@H]1CC[C@]2(O)C(=O)CO [predinisolone]	–	–	–	–	–	–	–	–	–	–	–	–	–	ineffective
